Where a name gives a salt, the structure may show the parent alone.

One may read the melting point as the temperature of the solid-liquid transition. On to `CN(C)CCCOc1ccc(-c2ccc(C(=O)NCCc3ccc4[nH]cc(C(=N)N)c4c3)cc2)cn1` (as salt: salt) [Example 1aaaaab, N-[2-(3-Carbamimidoyl-1H-indol-5-yl)ethyl]-4-[6-(3-dimethylaminopropoxy)pyridin-3-yl]benzamide], for which the melting point lay in the range of 84 to 86 °C. The value for `COCCOc1nccc(-c2ccc(C(=O)NCCc3ccc4[nH]cc(C(=N)N)c4c3)cc2)n1` (as salt: salt) [Example 1aaaal, N-[2-(3-Carbamimidoyl-1H-indol-5-yl)-ethyl]-4-[2-(2-methoxyethoxy)-pyrimidin-4-yl]benzamide] was 122 to 124 °C; that for `N=C(N)c1c[nH]c2ccc(CCNC(=O)c3ccc(-c4ccnc(OCCN5CCCC5)n4)cc3)cc12` (as salt: salt) [Example 1aaaaq, N-[2-(3-Carbamimidoyl-1H-indol-5-yl)ethyl]-4-[2-(2-pyrrolidin-1-yl-ethoxy)pyrimidin-4-yl]benzamide] was 104 to 105 °C. For the compound `CN1CCN(c2nccc(-c3ccc(C(=O)NCCc4ccc5[nH]cc(C(=N)N)c5c4)cc3)n2)CC1` (as salt: salt) [Example 1aaae, N-[2-(3-Carbamimidoyl-1H-indol-5-yl)ethyl]-4-[2-(4-methylpiperazin-1-yl)pyrimidin-4-yl]benzamide], the melting point is 111 to 113 °C.

`N=C(N)c1c[nH]c2ccc(CCNC(=O)c3ccc(-c4ccnc(CNCCCC(=O)O)n4)cc3)cc12` (as salt: salt) [Example 1aaaf, 4-[(4-{4-[2-(3-Carbamimidoyl-1H-indol-5-yl)ethylcarbamoyl]phenyl}pyrimidin-2-yl)methylamino]butyric acid] showed a melting point of 100 to 104 °C.

`N=C(N)c1c[nH]c2ccc(CCNC(=O)c3ccc(-c4ccnc(N5CCCC5CO)n4)cc3)cc12` (stereo not shown) (as salt: salt) [Example 1aaaj, N-[2-(3-Carbamimidoyl-1H-indol-5-yl)-ethyl]-4-[2-(2-hydroxymethylpyrrolidin-1-yl)-pyrimidin-4-yl]benzamide] had a melting point of 117 to 120 °C. `CN(CC(N)=O)c1nccc(-c2ccc(C(=O)NCCc3ccc4[nH]cc(C(=N)N)c4c3)cc2)n1` (as salt: salt) [Example 1aaak, N-[2-(3-Carbamimidoyl-1H-indol-5-yl)-ethyl]-4-[2-(carbamoylmethyl-N-methylamino)-pyrimidin-4-yl]benzamide] gave a melting point of 96 to 98 °C.

As for `CN(C)CCCCCCNc1nccc(-c2ccc(C(=O)NCCc3ccc4[nH]cc(C(=N)N)c4c3)cc2)n1` (as salt: salt) [Example 1aaar, N-[2-(3-Carbamimidoyl-1H-indol-5-yl)ethyl]-4-[2-(6-dimethylaminohexylamino)pyrimidin-4-yl]benzamide], the melting point lay in the range of 89 to 91 °C. The compound `CN(C)CCCCNc1nccc(-c2ccc(C(=O)NCCc3ccc4[nH]cc(C(=N)N)c4c3)cc2)n1` (as salt: salt) [Example 1aaas, N-[2-(3-Carbamimidoyl-1H-indol-5-yl)ethyl]-4-[2-(4-dimethylaminobutylamino)pyrimidin-4-yl]benzamide] showed a melting point of 156 to 159 °C. The value for `N=C(N)c1c[nH]c2ccc(CCNC(=O)c3ccc(-c4ccnc(NC5CC6CCC5C6)n4)cc3)cc12` (stereo not shown) (as salt: salt) [Example 1aaat, 4-[2-(Bicyclo[2.2.1]hept-2-ylamino)pyrimidin-4-yl]-N-[2-(3-carbamimidoyl-1H-indol-5-yl)ethyl]benzamide] was 152 to 155 °C; that for `N=C(N)c1c[nH]c2ccc(CCNC(=O)c3ccc(-c4ccnc(N5CCCC5C(N)=O)n4)cc3)cc12` (stereo not shown) (as salt: salt) [Example 1aaau, 1-(4-{4-[2-(3-Carbamimidoyl-1H-indol-5-yl)ethylcarbamoyl]phenyl}pyrimidin-2-yl)pyrrolidine-2-carboxylic acid amide] was 139 to 141 °C; that for `CN(CCO)c1nccc(-c2ccc(C(=O)NCCc3ccc4[nH]cc(C(=N)N)c4c3)cc2)n1` (as salt: salt) [Example 1aaav, N-[2-(3-Carbamimidoyl-1H-indol-5-yl)ethyl]-4-{2-[(2-hydroxy-ethyl)-N-methylamino]pyrimidin-4-yl}benzamide] was 97 to 100 °C. Consider `COc1ccc(-c2ccc(C(=O)NCCc3ccc4[nH]cc(C(=N)N)c4c3)cc2)cc1OC` (as salt: salt) [Example 1o, 3′,4′-Dimethoxybiphenyl-4-carboxylic acid (2-[3-carbamimidoylindol-5-yl]ethyl)amide], for which the melting point was > 250 °C. Compound `N=C(N)c1c[nH]c2ccc(CCNC(=O)c3ccc(-c4cccnc4)cc3)cc12` [Example 1a, N-(2-[3-Carbamimidoyl-5-indolyl]ethyl)-4-pyrid-3-ylbenzamide] had a melting point of 55 to 58 °C. The value for `N=C(N)c1c[nH]c2ccc(CCNC(=O)c3ccc(-n4cncn4)nc3)cc12` [Example 1aa, N-(2-[3-Carbamimidoylindol-5-yl]ethyl)-6-(1,2,4)triazol-1-ylnicotinamide] was 196 to 199 °C. The value for `N=C(N)c1c[nH]c2ccc(CCNC(=O)c3ccc(-c4ccncc4)cc3)cc12` [Example 1aaaaaaa, N-(2-[3-Carbamimidoylindol-5-yl]ethyl)-4-pyrid-4-ylbenzamide] was 113 to 116 °C; that for `CN(C)CCNC(=O)Cn1cc(-c2ccc(C(=O)NCCc3ccc4[nH]cc(C(=N)N)c4c3)cc2)ccc1=O` [Example 1aaaaad, N-[2-(3-Carbamimidoyl-1H-indol-5-yl)-ethyl]-4-{1-[(2-dimethylaminoethylcarbamoyl)methyl]-6-oxo-1,6-dihydropyridin-3-yl}benzamide] was 71 to 75 °C. The compound `CN(C)CCOc1ccc(-c2ccc(C(=O)NCCc3ccc4[nH]cc(C(=N)N)c4c3)cc2)cn1` [Example 1aaaaaz, N-(2-[3-Carbamimidoylindol-5-yl]ethyl)-4-(6-[2-dimethylaminoethoxy]pyridin-3-yl)benzamide] gave a melting point of 57 to 59 °C. The value for `CC(Oc1nccc(-c2ccc(C(=O)NCCc3ccc4[nH]cc(C(=N)N)c4c3)cc2)n1)C(N)=O` (stereo not shown) [Example 1aaaam, N-[2-(3-Carbamimidoyl-1H-indol-5-yl)ethyl]-4-[2-(1-carbamoylethoxy)pyrimidin-4-yl]benzamide] was 159 to 161 °C.

The compound `CN(C)CCCCCCOc1nccc(-c2ccc(C(=O)NCCc3ccc4[nH]cc(C(=N)N)c4c3)cc2)n1` [Example 1aaaan, N-[2-(3-Carbamimidoyl-1H-indol-5-yl)ethyl]-4-[2-(6-dimethylaminohexyloxy)pyrimidin-4-yl]benzamide] displayed a melting point of 82 to 84 °C.

For the compound `N=C(N)c1c[nH]c2ccc(CCNC(=O)c3ccc(-c4ccnc(OC5CCCNC5=O)n4)cc3)cc12` (stereo not shown) [Example 1aaaap, N-[2-(3-Carbamimidoyl-1H-indol-5-yl)ethyl]-4-[2-(2-oxopiperidin-3-yloxy)pyrimidin-4-yl]benzamide], the melting point lay within 145 to 147 °C. `CN(C)CCOc1nccc(-c2ccc(C(=O)NCCc3ccc4[nH]cc(C(=N)N)c4c3)cc2)n1` [Example 1aaaar, N-[2-(3-Carbamimidoyl-1H-indol-5-yl)ethyl]-4-[2-(2-dimethylaminoethoxy)pyrimidin-4-yl]benzamide] returned a melting point of 106 to 107 °C. The value for `CN(C)CCOc1cccc(-c2ccc(C(=O)NCCc3ccc4[nH]cc(C(=N)N)c4c3)cc2)c1` [Example 1aaaas, 3′-(2-Dimethylaminoethoxy)biphenyl-4-carboxylic acid [2-(3-carbamimidoyl-1H-indol-5-yl)ethyl]amide] was 99 to 101 °C; that for `CN(C)CCOc1ccccc1-c1ccc(C(=O)NCCc2ccc3[nH]cc(C(=N)N)c3c2)cc1` [Example 1aaaau, 2′-(2-Dimethylaminoethoxy)biphenyl-4-carboxylic acid [2-(3-carbamimidoyl-1H-indol-5-yl)ethyl]amide] was 73 to 76 °C. The value for `CN(C)CCCOc1ccccc1-c1ccc(C(=O)NCCc2ccc3[nH]cc(C(=N)N)c3c2)cc1` [Example 1aaaav, 2′-(3-Dimethylaminopropoxy)biphenyl-4-carboxylic acid [2-(3-carbamimidoyl-1H-indol-5-yl)ethyl]amide] was 76 to 78 °C; that for `CN(C)CCCOc1cccc(-c2ccc(C(=O)NCCc3ccc4[nH]cc(C(=N)N)c4c3)cc2)c1` [Example 1aaaaw, 3′-(3-Dimethylaminopropoxy)biphenyl-4-carboxylic acid [2-(3-carbamimidoyl-1H-indol-5-yl)ethyl]amide] was 84 to 86 °C; that for `N=C(N)c1c[nH]c2ccc(CCNC(=O)c3ccc(-c4ccnc(OCC(F)(F)F)n4)cc3)cc12` [Example 1aaag, N-[2-(3-Carbamimidoyl-1H-indol-5-yl)ethyl]-4-[2-(2,2,2-trifluoroethoxy)pyrimidin-4-yl]benzamide] was 194 to 195 °C. As to `N=C(N)c1c[nH]c2ccc(CCNC(=O)c3ccc(-c4ccnc(N5CCCC5)n4)cc3)cc12` [Example 1aaah, N-[2-(3-Carbamimidoyl-1H-indol-5-yl)-ethyl]-4-(2-pyrrolidin-1-ylpyrimidin-4-yl)benzamide], the melting point fell in the range of 134 to 136 °C. Compound `N=C(N)c1c[nH]c2ccc(CCNC(=O)c3ccc(-c4ccnc(NCCCCCCN5CCCC5)n4)cc3)cc12` [Example 1aaal, N-[2-(3-Carbamimidoyl-1H-indol-5-yl)ethyl]-4-[2-(6-pyrrolidin-1-yl-hexylamino)pyrimidin-4-yl]benzamide] registered a melting point of 159 to 161 °C.

Compound `N=C(N)c1c[nH]c2ccc(CCNC(=O)c3ccc(-c4ccnc(NCCCCCCN5CCCCC5)n4)cc3)cc12` [Example 1aaam, N-[2-(3-Carbamimidoyl-1H-indol-5-yl)ethyl]-4-[2-(6-piperidin-1-ylhexylamino)pyrimidin-4-yl]benzamide] registered a melting point of 110 to 113 °C. `N=C(N)c1c[nH]c2ccc(CCNC(=O)c3ccc(-c4ccnc(NCCCCN5CCCCC5)n4)cc3)cc12` [Example 1aaan, N-[2-(3-Carbamimidoyl-1H-indol-5-yl)ethyl]-4-[2-(4-piperidin-1-ylbutylamino)pyrimidin-4-yl]benzamide]: the melting point fell in the range of 94 to 96 °C.
